Results reported in patent US20080200655A1, “Protein Formulations Containing Sorbitol” (Wyeth, priority 2007, published 2008).

Experiments:
MAB-002 = assay: Five freeze-thaw cycles of MAB-002 in formulations with different polyols, HMW species formation; format: physicochemical; details: MAB-002 5 mg/ml, 10 mM histidine pH 6.0, various polyol concentrations
Description: This experiment compared mannitol to other polyols with different maximum solubilities with respect to their abilities to induce aggregation during freeze-thaw. A monoclonal antibody referred to as MAB-002 was dialyzed into different liquid formulations containing mannitol, galactitol, or sorbitol, respectively, at various concentrations. Each formulation also contained 10 mM histidine, pH 6.0. The final concentration of MAB-002 in each of the liquid formulations was 5 mg/ml. Each formulation was then subject to five cycles of freeze-thaw, and monitored for HMW species formation. Changes in the percentage of HMW species was plotted against the polyol concentrations in FIG. 3.

[1] = cited from earlier work
[2] = tested on: four monoclonal antibodies (mAb2, mAb3, mAb4, mAb5), a cytokine and a fusion protein; assay: Five freeze-thaw cycles of six proteins in 250 mM mannitol or sorbitol, HMW species formation; format: physicochemical; details: each protein 1 mg/ml, 10 mM histidine pH 6.0, 250 mM polyol
Description: Six different proteins including four different monoclonal antibodies (referred to as mAb2, mAb3, mAb4, and mAb5), a cytokine and a fusion protein were dialyzed into 10 mM histidine, pH 6.0, and 250 mM mannitol or sorbitol. The final concentration of each protein was 1 mg/ml. The formulations were then subject to five cycles of freeze-thaw as described above, and monitored for HMW species formation.

[3] = Sub ambient DSC scan of formulation during cooling and warming; format: physicochemical; details: formulation containing the polyol

SMILES	Induction of aggregation (change in percentage of HMW species) (MAB-002)	Maximum solubility [1] [mM]	Protein aggregation (HMW species formation) [2]	Crystallization during cooling and warming [3]
OC[C@@H](O)[C@H](O)[C@H](O)[C@@H](O)CO [galactitol]	induced aggregation at low concentrations and at a faster rate compared to mannitol	180		
OC[C@@H](O)[C@@H](O)[C@H](O)[C@H](O)CO [mannitol]		1000	considerably more protein aggregation	
OC[C@@H](O)[C@@H](O)[C@H](O)[C@@H](O)CO [sorbitol]	did not induce aggregation significantly compared to mannitol	4500	suppresses aggregation of multiple proteins	no crystallization occurred
